Measured values published in paper PMC10309634, “Computer simulation approach to the identification of visfatin-derived angiogenic peptides” (PLOS ONE, 2023).

How the values were obtained:
Type in all cases: cell-based, human
VEGF-A mRNA expression = assay: RT-qPCR of VEGF-A mRNA in HUVECs; settings: 24 hours, RT-qPCR vs GAPDH, compared to the control group
Experimental: (§1) After treating HUVECs with visfatin-derived peptides for 24 hours, the total RNA was isolated from the cultured HUVECs using the Tri-RNA reagent (Favorgen Biotech Corp., Kaohsiung, Taiwan) according to the manufacturer’s instructions. cDNA was synthesized from 1 μg of total RNA using the iScript^TM cDNA Synthesis Kit (Bio-Rad Laboratories, Inc., Hercules, CA, USA). The mRNA expression levels of VEGF and visfatin were carried out using Applied Biosystems 7500 software (Applied Biosystems Inc., Waltham, MA, USA). Real-time PCR was performed using SYBR Green Q-PCR Master Mix (Samjung Bio Science, Daejeon, South Korea). The reaction conditions were as follows: initial denaturation at 95°C for 5 min, amplification at 95°C for 15 sec, and at 60°C for 1 min. All PCR amplifications were performed for 40 cycles. The specific primers used were as follows: 5’-[…]-3’ (forward) and 5’-GTG ATGGCATGGACTGTGGT-3’ (reverse) for glyceraldehyde-3-phosphate dehydrogenase (GAPDH); 5’-GGAGG GTGACGGGGTGAAGG-3’ (forward) and 5’-[…]-3’ (reverse) for visfatin; and 5’-[…]-3’ (forward) and 5’-[…]-3’ (reverse) for VEGF-A. The relative changes in the gene expression were determined using the 2^-ΔΔCt method and the results were normalized to the expression of GAPDH.

HUVECs [1] = assay: MTT cell cytotoxicity assay; settings: MTT, 0.1, 0.5, 1.0 and 2.0 μM, 24 hours, triplicate
Experimental: HUVECs were grown in EGM-2 supplemented with an EGM-2 Supplement Mix® (PromoCell) containing 2% FBS at a density of 1×10^4 cells in 96-well plates (SPL Inc., Gyeonggido, Korea). After 24 hours, the cells were treated with 1000ng/ml visfatin (Adipogen Life Science) and various concentrations of visfatin-derived peptides (0.1, 0.5, 1.0, and 2.0 μM), and then incubated overnights in an atmosphere of 5% CO2. The 3-(4,5-Dimethylthiazol-2-yl)-2,5-diphenyltetrazolium bromide (MTT) assay reagents (Sigma-Aldrich, St. Louis, MO, USA) were as added directly to each well to a final concentration of 0.5 mg/ml. After 4 hours, the medium was removed, the formazan crystals formed in the cells were dissolved in DMSO, and the absorbance of the formazan solution was measured using a Synergy HTX Multi-Mode Reader (BIO-TEK, Vermont, USA) with a 540 nm filter. Each sample was assayed in triplicate.

visfatin mRNA expression = assay: RT-qPCR of visfatin mRNA in HUVECs; settings: 24 hours, RT-qPCR vs GAPDH, compared to the control group
Experimental: as §1

HUVECs [2] = assay: In vitro wound healing migration assay; settings: 18 h, scratch wound, compared to the control group
Experimental: HUVECs were seeded in 24-well plates (SPL) at a density of 2×10^5 cells and incubated in EGM medium supplemented with EGM-Supplement Mix® containing 1% FBS overnight. Cells were scratched using a P200 pipette tip to induce a wound. Subsequently, then b-FGF (25ng/ml), visfatin (1000 ng/ml), and visfatin-derived peptides (0.5μM and 2.0μM) were added and the culture was maintained for 18 hours to allow the cells to migrate. The migration patterns were observed using a phase-contrast microscope and images were captured. The wound diameters were photographed at 16–24 hours. Wound closure was determined using optical microscopy at 40× magnification. Migration was quantified by counting the number of cells that had moved beyond the reference line.

HUVECs [3] = assay: In vitro trans-well invasion assay; settings: 24 hours, Matrigel-coated trans-well, compared to the control and visfatin-treated groups
Experimental: The invasion capacity of the cells was determined using a 24-well trans-well system. The upper side of the trans-well membrane was coated with 1 mg/mL Matrigel at 10 μL/well at room temperature for 1 hour. The EGM-2 medium (0.5 ml)was added to the lower part of trans-well chamber. HUVECs (2×10^4 cells) and EGM medium (0.1 ml) were placed on the upper compartment of the trans-well. And then b-FGF (25ng/ml), visfatin (1000 ng/ml), and visfatin-derived peptides (0.5μM and 2.0μM) were added to the upper compartment of the trans-well. Cells were incubated at 37°C and 5% CO2 for 24 hours, fixed with methanol, and stained with hematoxylin and eosin. The cells on the upper surface of the membrane were removed by wiping with a cotton swab. Cell invasion was determined by counting the number of whole cells in a single filter using optical microscopy at 40× magnification. Each sample was assayed in duplicate, and independent experiments were repeated three times.

HUVECs [4] = assay: In vitro tube formation assay on Matrigel; settings: 4 hours on Matrigel
Experimental: HUVECs (2×10^4 cells/well) were seeded on a layer of polymerized Matrigel and treated with or without visfatin-derived peptides. The Matrigel culture was incubated at 37°C in the EGM supplemented with EGM-Supplement Mix® containing 1% FBS. After 4 hours, changes in the cell morphology were observed using a phase-contrast microscope and photographed at 40× magnification. Each sample was assayed in duplicate, and independent experiments were repeated three times. Angiogenesis was analyzed with ImageJ software using an angiogenesis analyzer (Bethesda, MD, USA).

## EYKLHDFGYRGV [Peptide-2, visfatin-derived peptide … (12AA), synthesised by GL Biochem]
VEGF-A mRNA expression; 0.5 μM
  mRNA expression of VEGF-A: significantly increased
VEGF-A mRNA expression; 2.0 μM
  mRNA expression of VEGF-A: remarkably increased
HUVECs [1]
  cytotoxic effect / viability of HUVECs: no cytotoxic effect
Visfatin mRNA expression; 0.5 μM
  mRNA expression of visfatin: significantly increased
Visfatin mRNA expression; 2.0 μM
  mRNA expression of visfatin: significantly increased
HUVECs [2]; 2.0 μM
  increase in cell migration: two-fold increase
HUVECs [3]; 2.0 μM
  increase of cell invasion: more than two-fold
HUVECs [4]; 0.5 μM, vs control
  number of master junctions: significantly increased
  number of meshes: significantly increased

## LEYKLHDFGY [Peptide-1, visfatin-derived peptide […]; (10AA), synthesised by GL Biochem]
VEGF-A mRNA expression; 0.5 μM
  mRNA expression of VEGF-A: significantly increased
VEGF-A mRNA expression; 2.0 μM
  mRNA expression of VEGF-A: did not increase
HUVECs [1]
  cytotoxic effect / viability of HUVECs: no cytotoxic effect
Visfatin mRNA expression; 0.5 μM
  mRNA expression of visfatin: significantly increased
Visfatin mRNA expression; 2.0 μM
  mRNA expression of visfatin: did not increase
HUVECs [2]; 0.5 μM
  increase in cell migration: two-fold increase
HUVECs [3]; 0.5 μM
  increase of cell invasion: more than two-fold
HUVECs [4]; 0.5 μM, vs control
  number of master junctions: significantly increased
  number of meshes: significantly increased
HUVECs [4]; 2.0 μM, vs control
  number of master junctions: significantly increased

## b-FGF: recombinant human basic fibroblast growth factor, positive control
HUVECs [4]; positive controls, compared to the control group
  number of meshes: not significantly different
